Assay results published in ChEMBL document CHEMBL4308841, “Synthesis, in vitro antiproliferative activity, and kinase inhibitory effects of pyrazole-containing diarylureas and diarylamides” (Eur J Med Chem, 2018).

Experiments:
[1] = target: Epidermal growth factor receptor (Homo sapiens) (UniProt P00533); experiment: Inhibition of human EGFR at 10 uM using poly[Glu:Tyr] (4:1) as substrate after 40 mins in presence of [gamma33P]ATP by scintillation counting method relative to control
[2] = target: Serine/threonine-protein kinase A-Raf (Homo sapiens) (UniProt P10398); experiment: Inhibition of human ARAF at 10 uM using MEK1 (K97R) as substrate after 40 mins in presence of [gamma33P]ATP by scintillation counting method relative to control
RPMI-8226 = experiment: Induction of apoptosis in human RPMI8226 cells assessed as increase in caspase 3/7 level at 10 uM relative to control; type: functional
HOP-92 = experiment: Growth inhibition of human HOP92 cells incubated for 48 hrs by sulforhodamine B assay; type: functional, cell-based; conditions: HOP-92, 48 h
[3] = target: Tyrosine-protein kinase JAK1 (Homo sapiens) (UniProt P23458); experiment: Inhibition of human JAK1 at 10 uM using poly[Glu:Tyr] (4:1) as substrate after 40 mins in presence of [gamma33P]ATP by scintillation counting method relative to control
[4] = target: RAC-alpha serine/threonine-protein kinase (Homo sapiens) (UniProt P31749); experiment: Inhibition of human AKT1 at 10 uM using KGSGSGRPRTSSFAEG as substrate after 40 mins in presence of [gamma33P]ATP by scintillation counting method relative to control
[5] = target: ALK tyrosine kinase receptor (Homo sapiens) (UniProt Q9UM73); experiment: Inhibition of human ALK at 10 uM using poly[Glu:Tyr] (4:1) as substrate after 40 mins in presence of [gamma33P]ATP by scintillation counting method relative to control
Chain of ALK tyrosine kinase receptor (Homo sapiens) (Q9UM73 19-1620 limits assumed): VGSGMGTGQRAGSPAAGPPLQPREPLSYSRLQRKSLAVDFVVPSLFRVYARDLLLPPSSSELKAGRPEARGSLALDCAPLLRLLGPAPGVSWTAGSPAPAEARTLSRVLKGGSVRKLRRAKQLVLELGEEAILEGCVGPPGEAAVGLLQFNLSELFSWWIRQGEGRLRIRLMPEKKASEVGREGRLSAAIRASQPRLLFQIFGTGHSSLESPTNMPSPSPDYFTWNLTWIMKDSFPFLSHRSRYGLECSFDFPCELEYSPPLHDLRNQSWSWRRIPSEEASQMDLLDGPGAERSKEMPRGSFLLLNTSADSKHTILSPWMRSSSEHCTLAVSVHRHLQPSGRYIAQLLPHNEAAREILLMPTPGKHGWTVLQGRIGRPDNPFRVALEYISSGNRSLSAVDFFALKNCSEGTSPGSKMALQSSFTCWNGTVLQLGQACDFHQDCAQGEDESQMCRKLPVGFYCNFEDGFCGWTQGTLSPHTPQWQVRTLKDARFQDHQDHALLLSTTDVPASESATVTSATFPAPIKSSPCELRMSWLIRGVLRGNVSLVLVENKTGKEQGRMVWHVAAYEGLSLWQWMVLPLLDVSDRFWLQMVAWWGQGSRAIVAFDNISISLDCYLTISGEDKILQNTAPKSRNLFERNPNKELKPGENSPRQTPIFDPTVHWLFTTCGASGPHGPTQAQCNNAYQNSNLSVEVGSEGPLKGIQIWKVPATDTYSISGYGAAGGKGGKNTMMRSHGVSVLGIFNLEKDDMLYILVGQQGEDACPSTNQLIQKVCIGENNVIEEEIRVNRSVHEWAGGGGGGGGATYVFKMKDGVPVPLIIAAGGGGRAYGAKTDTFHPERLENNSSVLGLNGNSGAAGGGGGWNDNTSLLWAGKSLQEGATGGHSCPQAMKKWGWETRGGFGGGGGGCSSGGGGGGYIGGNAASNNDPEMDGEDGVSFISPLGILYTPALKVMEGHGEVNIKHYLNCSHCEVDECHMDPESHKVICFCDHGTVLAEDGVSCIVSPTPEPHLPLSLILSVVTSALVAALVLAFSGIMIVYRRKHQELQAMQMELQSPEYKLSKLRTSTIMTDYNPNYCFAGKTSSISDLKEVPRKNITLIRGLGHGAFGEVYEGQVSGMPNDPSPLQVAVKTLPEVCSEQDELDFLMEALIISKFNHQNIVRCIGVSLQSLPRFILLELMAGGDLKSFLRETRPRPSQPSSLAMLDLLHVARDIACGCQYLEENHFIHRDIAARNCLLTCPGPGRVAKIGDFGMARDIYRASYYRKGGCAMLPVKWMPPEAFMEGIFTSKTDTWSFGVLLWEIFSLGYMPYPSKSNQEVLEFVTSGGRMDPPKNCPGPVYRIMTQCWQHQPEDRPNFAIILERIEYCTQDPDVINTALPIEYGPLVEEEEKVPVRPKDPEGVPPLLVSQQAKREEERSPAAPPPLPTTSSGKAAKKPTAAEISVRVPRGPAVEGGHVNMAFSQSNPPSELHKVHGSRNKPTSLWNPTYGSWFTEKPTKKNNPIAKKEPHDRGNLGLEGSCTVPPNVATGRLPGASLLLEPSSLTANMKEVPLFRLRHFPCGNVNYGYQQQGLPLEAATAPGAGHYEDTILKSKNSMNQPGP

RAW264.7 = experiment: Cytotoxicity against mouse RAW264.7 cells by MTT assay; type: cell-based
[6] = target: Serine/threonine-protein kinase B-raf (Homo sapiens, UniProt P15056, V600E); experiment: Inhibition of human BRAF V600E mutant using MEK1 (K97R) as substrate after 40 mins in presence of [gamma33P]ATP by scintillation counting method
TK-10 [7] = experiment: Growth inhibition of human TK10 cells assessed as cell growth at 0.1 uM incubated for 48 hrs by sulforhodamine B assay relative to control; type: functional; conditions: TK-10, 48 h, read-out: Activity
[8] = tested on: Serine/threonine-protein kinase B-raf (Homo sapiens), P15056 [V600E]; experiment: Inhibition of human BRAF V600E mutant at 10 uM using MEK1 (K97R) as substrate after 40 mins in presence of [gamma33P]ATP by scintillation counting method relative to control
Chain of Serine/threonine-protein kinase B-raf (Homo sapiens), P15056 [V600E] (P15056 whole entry V600E): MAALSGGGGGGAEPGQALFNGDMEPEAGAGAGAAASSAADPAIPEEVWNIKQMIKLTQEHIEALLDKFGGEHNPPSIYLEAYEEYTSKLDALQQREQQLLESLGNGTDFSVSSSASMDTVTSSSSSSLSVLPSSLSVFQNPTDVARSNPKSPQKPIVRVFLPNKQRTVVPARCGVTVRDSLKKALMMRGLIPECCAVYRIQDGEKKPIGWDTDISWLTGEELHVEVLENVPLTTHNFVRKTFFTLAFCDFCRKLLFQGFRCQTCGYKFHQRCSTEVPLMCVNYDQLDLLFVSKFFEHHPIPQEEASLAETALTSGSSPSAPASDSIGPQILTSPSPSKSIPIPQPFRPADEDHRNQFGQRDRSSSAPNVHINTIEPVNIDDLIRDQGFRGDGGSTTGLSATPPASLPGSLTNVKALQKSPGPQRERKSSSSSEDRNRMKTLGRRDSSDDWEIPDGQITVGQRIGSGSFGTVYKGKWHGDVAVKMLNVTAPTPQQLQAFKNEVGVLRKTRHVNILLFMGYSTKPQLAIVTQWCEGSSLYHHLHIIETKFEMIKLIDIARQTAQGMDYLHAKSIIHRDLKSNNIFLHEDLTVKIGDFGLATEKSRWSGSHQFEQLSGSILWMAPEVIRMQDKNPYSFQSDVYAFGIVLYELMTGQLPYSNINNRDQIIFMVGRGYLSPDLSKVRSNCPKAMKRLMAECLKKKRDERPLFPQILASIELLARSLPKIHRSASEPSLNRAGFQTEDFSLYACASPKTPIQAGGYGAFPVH

TK-10 [9] = experiment: Growth inhibition of human TK10 cells assessed as cell growth at 100 uM incubated for 48 hrs by sulforhodamine B assay relative to control; type: functional; conditions: TK-10, 48 h, read-out: Activity
[10] = target: Dual specificity mitogen-activated protein kinase kinase 1 (Homo sapiens) (UniProt Q02750); experiment: Inhibition of human MEK1 at 10 uM using ERK2 (K52R) as substrate after 40 mins in presence of [gamma33P]ATP by scintillation counting method relative to control
Chain of Dual specificity mitogen-activated protein kinase kinase 1 (Homo sapiens) (Q02750 whole entry): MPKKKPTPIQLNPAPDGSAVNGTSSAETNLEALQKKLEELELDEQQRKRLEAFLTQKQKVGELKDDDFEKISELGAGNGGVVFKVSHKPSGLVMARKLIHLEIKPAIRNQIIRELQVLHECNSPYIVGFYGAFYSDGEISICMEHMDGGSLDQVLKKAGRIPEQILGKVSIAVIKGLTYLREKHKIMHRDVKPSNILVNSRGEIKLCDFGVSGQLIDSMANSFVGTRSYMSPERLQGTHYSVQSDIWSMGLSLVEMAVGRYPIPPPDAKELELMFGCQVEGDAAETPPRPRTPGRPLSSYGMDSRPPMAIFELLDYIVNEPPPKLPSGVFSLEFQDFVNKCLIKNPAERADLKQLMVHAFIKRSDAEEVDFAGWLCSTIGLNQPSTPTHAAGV

[11] = target: Tyrosine-protein kinase JAK2 (Homo sapiens) (UniProt O60674); experiment: Inhibition of human JAK2 at 10 uM using poly[Glu:Tyr] (4:1) as substrate after 40 mins in presence of [gamma33P]ATP by scintillation counting method relative to control
Chain of Tyrosine-protein kinase JAK2 (Homo sapiens) (O60674 whole entry): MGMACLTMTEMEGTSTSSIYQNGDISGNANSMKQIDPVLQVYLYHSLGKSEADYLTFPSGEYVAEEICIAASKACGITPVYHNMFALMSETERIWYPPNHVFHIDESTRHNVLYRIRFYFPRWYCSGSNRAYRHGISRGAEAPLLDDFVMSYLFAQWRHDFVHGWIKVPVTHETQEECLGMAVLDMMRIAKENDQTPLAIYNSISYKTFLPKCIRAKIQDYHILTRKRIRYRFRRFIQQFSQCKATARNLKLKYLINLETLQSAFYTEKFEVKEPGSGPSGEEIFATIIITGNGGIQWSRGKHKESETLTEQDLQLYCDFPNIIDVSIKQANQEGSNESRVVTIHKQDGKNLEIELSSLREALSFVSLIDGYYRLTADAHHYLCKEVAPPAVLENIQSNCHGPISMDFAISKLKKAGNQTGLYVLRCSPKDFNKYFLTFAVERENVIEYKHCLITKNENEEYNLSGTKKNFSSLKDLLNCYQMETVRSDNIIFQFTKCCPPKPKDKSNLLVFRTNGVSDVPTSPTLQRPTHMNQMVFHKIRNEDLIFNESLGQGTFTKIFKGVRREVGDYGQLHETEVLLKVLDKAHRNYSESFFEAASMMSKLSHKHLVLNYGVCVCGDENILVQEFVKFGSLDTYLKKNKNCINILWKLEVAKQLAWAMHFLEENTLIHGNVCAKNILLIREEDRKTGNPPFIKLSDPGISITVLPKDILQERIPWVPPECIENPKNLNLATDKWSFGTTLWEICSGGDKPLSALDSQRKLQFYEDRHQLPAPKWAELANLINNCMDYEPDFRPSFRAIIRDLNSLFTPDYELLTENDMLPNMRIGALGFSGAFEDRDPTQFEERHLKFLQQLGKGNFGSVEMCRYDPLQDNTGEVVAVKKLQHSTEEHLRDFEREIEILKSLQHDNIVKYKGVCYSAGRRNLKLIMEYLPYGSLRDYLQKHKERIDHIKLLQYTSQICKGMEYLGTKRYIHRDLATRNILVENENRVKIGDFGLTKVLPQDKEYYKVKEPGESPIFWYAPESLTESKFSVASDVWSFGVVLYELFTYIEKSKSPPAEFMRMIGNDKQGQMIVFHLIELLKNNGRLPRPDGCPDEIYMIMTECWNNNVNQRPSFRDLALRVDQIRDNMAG

[12] = target: Mitogen-activated protein kinase 14 (Homo sapiens) (UniProt Q16539); experiment: Inhibition of human p38alpha at 10 uM using myelin basic protein as substrate after 40 mins in presence of [gamma33P]ATP by scintillation counting method relative to control
[13] = target: Mitogen-activated protein kinase 8 (Homo sapiens) (UniProt P45983); experiment: Inhibition of human JNK1 at 10 uM using ATF2 as substrate after 40 mins in presence of [gamma33P]ATP by scintillation counting method relative to control
[14] = target: Receptor tyrosine-protein kinase erbB-4 (Homo sapiens) (UniProt Q15303); experiment: Inhibition of human ERBB4 at 10 uM using poly[Glu:Tyr] (4:1) as substrate after 40 mins in presence of [gamma33P]ATP by scintillation counting method relative to control
TK-10 [15] = experiment: Growth inhibition of human TK10 cells incubated for 48 hrs by sulforhodamine B assay; type: functional, cell-based; conditions: TK-10, 48 h
[16] = target: Receptor-type tyrosine-protein kinase FLT3 (Homo sapiens) (UniProt P36888); experiment: Inhibition of human FLT3 at 10 uM using EAIYAAPFAKKK as substrate after 40 mins in presence of [gamma33P]ATP by scintillation counting method relative to control
Chain of Receptor-type tyrosine-protein kinase FLT3 (Homo sapiens) (P36888 whole entry): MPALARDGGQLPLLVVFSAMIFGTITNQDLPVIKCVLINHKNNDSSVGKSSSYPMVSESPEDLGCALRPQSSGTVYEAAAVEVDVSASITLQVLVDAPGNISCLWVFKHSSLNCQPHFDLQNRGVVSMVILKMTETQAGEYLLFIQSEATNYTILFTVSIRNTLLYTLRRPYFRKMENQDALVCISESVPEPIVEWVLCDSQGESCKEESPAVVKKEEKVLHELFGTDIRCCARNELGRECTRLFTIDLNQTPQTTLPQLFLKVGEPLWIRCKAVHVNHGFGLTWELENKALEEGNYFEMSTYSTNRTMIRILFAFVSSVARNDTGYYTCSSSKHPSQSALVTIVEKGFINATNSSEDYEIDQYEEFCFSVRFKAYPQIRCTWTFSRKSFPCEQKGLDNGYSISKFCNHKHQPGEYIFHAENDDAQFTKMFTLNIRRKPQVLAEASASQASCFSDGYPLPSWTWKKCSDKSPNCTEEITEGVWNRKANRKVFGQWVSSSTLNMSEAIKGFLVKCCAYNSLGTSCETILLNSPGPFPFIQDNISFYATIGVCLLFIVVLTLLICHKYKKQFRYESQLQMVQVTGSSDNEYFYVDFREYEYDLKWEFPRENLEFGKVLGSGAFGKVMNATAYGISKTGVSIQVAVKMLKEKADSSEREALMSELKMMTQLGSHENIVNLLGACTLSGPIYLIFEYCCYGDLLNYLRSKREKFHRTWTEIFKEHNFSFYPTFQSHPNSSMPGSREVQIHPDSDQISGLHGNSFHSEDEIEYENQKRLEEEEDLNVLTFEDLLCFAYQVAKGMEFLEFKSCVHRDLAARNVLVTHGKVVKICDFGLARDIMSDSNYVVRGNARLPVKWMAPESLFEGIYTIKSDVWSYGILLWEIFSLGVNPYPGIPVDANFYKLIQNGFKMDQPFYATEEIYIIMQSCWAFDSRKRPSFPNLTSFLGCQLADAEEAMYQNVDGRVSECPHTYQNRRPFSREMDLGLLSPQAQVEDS

[17] = read-out: LC50 (the source's name)
[18] = read-out: pLC50 (the source's name) (converted)

SMILES: COc1cc(Cl)cc(-c2nn(-c3cccc(NC(=O)Nc4cc(C(F)(F)F)cc(C(F)(F)F)c4)c3)cc2-c2ccncc2)c1
- inhibition [1]: -7.47%
- inhibition [2]: 49.2%
- fold change (FC) (RPMI-8226): 2.79
- IC50 (HOP-92): 230 nM
- GI50 (HOP-92; read-out: GI50): 228 nM
- CC50 (HOP-92; [17]): 2010 nM
- TGI (HOP-92; read-out: TGI): 780 nM
- GI50 (HOP-92; read-out: pGI50 (converted)): 229 nM
- CC50 (HOP-92; [18]): 20000 nM
- TGI (HOP-92; read-out: pTGI (converted)): 776 nM
- inhibition [3]: 10.7%
- inhibition [4]: -5.92%
- inhibition [5]: -3.77%
- IC50 (RAW264.7): > 100000 nM
- IC50 [6]: 390 nM
- growth at 0.1 µM (TK-10 [7]): 90%
- inhibition [8]: 94.7%
- growth at 100 µM (TK-10 [9]): -91%
- inhibition [10]: -7.99%
- inhibition [11]: -2.88%
- inhibition [12]: -5.41%
- inhibition [13]: 2.27%
- inhibition [14]: 0.9%
- IC50 (TK-10 [15]): 680 nM
- GI50 (TK-10 [15]; read-out: GI50): 654 nM
- CC50 (TK-10 [15]; [17]): 42.5 nM
- TGI (TK-10 [15]; read-out: TGI): 14600 nM
- GI50 (TK-10 [15]; read-out: pGI50 (converted)): 708 nM
- CC50 (TK-10 [15]; [18]): 42700 nM
- TGI (TK-10 [15]; read-out: pTGI (converted)): 14800 nM
- inhibition [16]: -2.82%
